Source: patent US10759781B2, “Substituted guanidine derivatives” (UBE INDUSTRIES, LTD., priority 2015, dated 2020)
Structures can show the parent of a compound that is named as a salt.

Biological target: T1, Human VAP-1 enzyme (Homo sapiens, UniProt Q16853)
T1 construct: purchased R&D Systems, Inc
T1 sequence (Q16853 1-763): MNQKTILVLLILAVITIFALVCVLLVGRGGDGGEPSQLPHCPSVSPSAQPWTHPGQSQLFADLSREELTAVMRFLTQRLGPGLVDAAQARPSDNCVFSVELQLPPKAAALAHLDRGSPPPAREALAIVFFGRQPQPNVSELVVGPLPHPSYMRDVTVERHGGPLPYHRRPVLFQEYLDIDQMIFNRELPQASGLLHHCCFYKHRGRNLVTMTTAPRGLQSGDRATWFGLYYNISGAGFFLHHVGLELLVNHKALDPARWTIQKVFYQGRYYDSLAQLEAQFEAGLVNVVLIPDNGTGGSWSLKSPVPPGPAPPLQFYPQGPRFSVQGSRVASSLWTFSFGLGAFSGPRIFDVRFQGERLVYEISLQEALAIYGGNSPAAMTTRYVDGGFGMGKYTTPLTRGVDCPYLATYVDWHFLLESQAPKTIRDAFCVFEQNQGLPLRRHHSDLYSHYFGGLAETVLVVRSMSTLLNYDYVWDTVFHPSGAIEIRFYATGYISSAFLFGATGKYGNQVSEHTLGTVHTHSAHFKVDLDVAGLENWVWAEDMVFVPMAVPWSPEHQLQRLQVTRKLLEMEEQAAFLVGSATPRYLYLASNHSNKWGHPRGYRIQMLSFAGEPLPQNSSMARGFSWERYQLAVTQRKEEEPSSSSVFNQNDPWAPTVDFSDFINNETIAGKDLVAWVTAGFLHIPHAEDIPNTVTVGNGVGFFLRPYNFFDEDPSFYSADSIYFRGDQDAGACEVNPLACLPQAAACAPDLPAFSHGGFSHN
Experiment: Human VAP-1 enzyme inhibition test
Format: biochemical
Details: 1 h; compound 30 nM; 14C-benzylamine 100 μM; read-out: inhibition ratio (human VAP-1 enzyme)
Protocol: Human VAP-1 enzyme inhibition test
This test was conducted by modifying the method of P. H. Yu et al. (Diabetologia 40 1243 (1997)). Human VAP-1 enzyme (R&D Systems, Inc.) was pre-incubated in a 96-well plate with the compound dissolved in dimethylsulfoxide at room temperature for 20 minutes. Next, in a solution to the final volume of 200 μL, the enzyme reaction solution was incubated with ^14C-benzylamine (final concentration 100 μM) at 37° C. for 1 hour. The reaction was terminated by the addition of 100 μL of 2 M citric acid solution to the reaction solution. The oxidative product was extracted using a toluene/ethyl acetate mixture and the radioactivity was measured with a liquid scintillation counter. The inhibition ratio of the compound was calculated using the following equation. Inhibition ratio={1−[VAP-1 enzyme activity after treatment with the compound]/[VAP-1 enzyme activity in the presence of dimethylsulfoxide alone without the compound]}×100

Row | Structure (SMILES) | inhibition at 0.03 µM [%]
1 | CN(CCON=C1CN(c2ncc(-c3cccc(COC(=O)NC(=N)N)c3F)cn2)C1)Cc1ccccc1 [Example 118, 3-{2-[3-({2-[Benzyl(methyl)amino]ethoxy}imino)azetidin-1-yl]pyrimidin-5-yl}-2-fluorobenzyl carbamimidoylcarbamate] | ≥ 50
2 | CC(=O)N1CC(ON=C2CN(c3ncc(-c4cccc(COC(=O)NC(=N)N)c4F)cn3)C2)C1 [Example 138, 3-[2-(3-{[(1-Acetylazetidin-3-yl)oxy]imino}azetidin-1-yl)pyrimidin-5-yl]-2-fluorobenzyl carbamimidoylcarbamate] | ≥ 50
3 | N=C(N)NC(=O)OCc1cccc(-c2cnc(N3CCC(=NOCCN4CCOCC4=O)CC3)nc2)c1F [Example 180, 2-Fluoro-3-[2-(4-{[2-(3-oxomorpholino)ethoxy]imino}piperidin-1-yl)pyrimidin-5-yl]benzyl carbamimidoylcarbamate] | ≥ 50
4 | CN1CCOC(CON=C2CN(c3ncc(-c4cccc(COC(=O)NC(=N)N)c4F)cn3)C2)C1 (stereo not drawn) [Example 130, 2-Fluoro-3-[2-(3-{[(4-methylmorpholin-2-yl)methoxy]imino}azetidin-1-yl)pyrimidin-5-yl]benzyl carbamimidoylcarbamate] | ≥ 50
5 | CN1CC(ON=C2CN(c3ncc(-c4cccc(COC(=O)NC(=N)N)c4F)cn3)C2)C1 [Example 137, 2-Fluoro-3-[2-(3-{[(1-methylazetidin-3-yl)oxy]imino}azetidin-1-yl)pyrimidin-5-yl]benzyl carbamimidoylcarbamate] | ≥ 50
6 | N=C(N)NC(=O)OCc1cccc(-c2cnc(N3CC(=NOCCC(N)=O)C3)nc2)c1F [Example 112, 3-(2-{3-[(3-Amino-3-oxopropoxy)imino]azetidin-1-yl}pyrimidin-5-yl)-2-fluorobenzyl carbamimidoylcarbamate] | ≥ 50
7 | CN(C)CC(CO)CON=C1CN(c2ncc(-c3cccc(COC(=O)NC(=N)N)c3F)cn2)C1 (stereo not drawn) [Example 122, 3-[2-(3-{[3-(Dimethylamino)-2-(hydroxymethyl)propoxy]imino}azetidin-1-yl)pyrimidin-5-yl]-2-fluorobenzyl carbamimidoylcarbamate] | ≥ 50
8 | N=C(N)NC(=O)OCc1cccc(-c2cnc(N3CC(=NOCCN4CCCCC4)C3)nc2)c1F [Example 124, 2-Fluoro-3-[2-(3-{[2-(piperidin-1-yl)ethoxy]imino}azetidin-1-yl)pyrimidin-5-yl]benzyl carbamimidoylcarbamate] | ≥ 50
9 | N=C(N)NC(=O)OCc1cccc(-c2cnc(N3CCC(=NOCCN4CCOC4=O)CC3)nc2)c1F [Example 179, 2-Fluoro-3-[2-(4-{[2-(2-oxooxazolidin-3-yl)ethoxy]imino}piperidin-1-yl)pyrimidin-5-yl]benzyl carbamimidoylcarbamate] | ≥ 50
10 | CNC(=O)CCON=C1CN(c2ncc(-c3cccc(COC(=O)NC(=N)N)c3F)cn2)C1 [Example 113, 2-Fluoro-3-[2-(3-{[3-(methylamino)-3-oxopropoxy]imino}azetidin-1-yl)pyrimidin-5-yl]benzyl carbamimidoylcarbamate] | ≥ 50
11 | CON=C1CN(c2ncc(-c3cccc(COC(=O)NC(=N)N)c3F)cc2C#N)C1 [Example 43, 3-{5-Cyano-6-[3-(methoxyimino)azetidin-1-yl]pyridin-3-yl}-2-fluorobenzyl carbamimidoylcarbamate] | ≥ 50
12 | N=C(N)NC(=O)OCc1cccc(-c2cnc(N3CC(=NOC4CN(CCF)C4)C3)nc2)c1F [Example 148, 2-Fluoro-3-{2-[3-({[1-(2-fluoroethyl)azetidin-3-yl]oxy}imino)azetidin-1-yl]pyrimidin-5-yl}benzyl carbamimidoylcarbamate] | ≥ 50
13 | N=C(N)NC(=O)OCc1cccc(-c2cnc(N3CCC(=NOCCN)CC3)nc2)c1F [Example 164, 3-(2-{4-[(2-Aminoethoxy)imino]piperidin-1-yl}pyrimidin-5-yl)-2-fluorobenzyl carbamimidoylcarbamate] | ≥ 50
14 | N=C(N)NC(=O)OCc1cccc(-c2cnc(N3CC(=NOC4CN(CC(F)(F)F)C4)C3)nc2)c1F [Example 140, 2-Fluoro-3-{2-[3-({[1-(2,2,2-trifluoroethyl)azetidin-3-yl]oxy}imino)azetidin-1-yl]pyrimidin-5-yl}benzyl carbamimidoylcarbamate] | ≥ 50
15 | O=C(O)/C=C\C(=O)O.[2H]C([2H])([2H])ON=C1CN(c2ncc(-c3cccc(COC(=O)NC(=N)N)c3F)cc2F)C1 [Example 206, 2-Fluoro-3-(5-fluoro-6-{3-[(methoxy-d3)imino]azetidin-1-yl}pyridin-3-yl)benzyl carbamimidoylcarbamate maleate] | ≥ 50
16 | N=C(N)NC(=O)OCc1cccc(-c2cnc(N3CC(=NO)C3)c(F)c2)c1F [Example 107, 2-Fluoro-3-{5-fluoro-6-[3-(hydroxyimino)azetidin-1-yl]pyridin-3-yl}benzyl carbamimidoylcarbamate] | ≥ 50
17 | N=C(N)NC(=O)OCc1cccc(-c2cnc(N3CC(=NOCC(F)CO)C3)c(F)c2)c1F (stereo not drawn) [Example 103, 2-Fluoro-3-(5-fluoro-6-{3-[(2-fluoro-3-hydroxypropoxy)imino]azetidin-1-yl}pyridin-3-yl)benzyl carbamimidoylcarbamate] | ≥ 50
18 | N=C(N)NC(=O)OCc1cccc(-c2cnc(N3CC(=NOCCN4CC(F)C4)C3)nc2)c1F [Example 128, 2-Fluoro-3-[2-(3-{[2-(3-fluoroazetidin-1-yl)ethoxy]imino}azetidin-1-yl)pyrimidin-5-yl]benzyl carbamimidoylcarbamate] | ≥ 50
19 | N=C(N)NC(=O)OCc1cccc(-c2cnc(N3CC(=NOCCCF)C3)nc2)c1F [Example 8, 2-Fluoro-3-(2-{3-[(3-fluoropropoxy)imino]azetidin-1-yl}pyrimidin-5-yl)benzyl carbamimidoylcarbamate] | ≥ 50
20 | CON=C1CN(c2ncc(-c3cccc(COC(=O)NC(=N)N)c3F)cc2C(F)F)C1 [Example 45, 3-{5-(Difluoromethyl)-6-[3-(methoxyimino)azetidin-1-yl]pyridin-3-yl}-2-fluorobenzyl carbamimidoylcarbamate] | ≥ 50
21 | N=C(N)NC(=O)OCc1cccc(-c2cnc(N3CC(=NOCCO)C3)nc2)c1F [Example 71, 2-Fluoro-3-(2-{3-[(2-hydroxyethoxy)imino]azetidin-1-yl}pyrimidin-5-yl)benzyl carbamimidoylcarbamate hydrochloride] | ≥ 50
22 | CNC(=O)CON=C1CN(c2ncc(-c3cccc(COC(=O)NC(=N)N)c3F)cn2)C1 [Example 111, 2-Fluoro-3-[2-(3-{[2-(methylamino)-2-oxoethoxy]imino}azetidin-1-yl)pyrimidin-5-yl]benzyl carbamimidoylcarbamate] | ≥ 50
23 | N=C(N)NC(=O)OCc1cccc(-c2cnc(N3CC(=NOCC(CO)CF)C3)nc2)c1F (stereo not drawn) [Example 75, 2-Fluoro-3-[2-(3-{[3-fluoro-2-(hydroxymethyl)propoxy]imino}azetidin-1-yl)pyrimidin-5-yl]benzyl carbamimidoylcarbamate] | ≥ 50
24 | N=C(N)NC(=O)OCc1cccc(-c2cnc(N3CC(=NOCC(F)F)C3)nc2)c1F [Example 6, 3-(2-{3-[(2,2-Difluoroethoxy)imino]azetidin-1-yl}pyrimidin-5-yl)-2-fluorobenzyl carbamimidoylcarbamate] | ≥ 50
25 | CCON=C1CN(c2ncc(-c3cccc(COC(=O)NC(=N)N)c3F)cn2)C1 [Example 188, 3-{2-[3-(Ethoxyimino)azetidin-1-yl]pyrimidin-5-yl}-2-fluorobenzyl carbamimidoylcarbamate 1/2 L-tartrate] | ≥ 50
26 | N=C(N)NC(=O)OCc1cccc(-c2cnc(N3CC(=NOCCCCO)C3)nc2)c1F [Example 73, 2-Fluoro-3-(2-{3-[(4-hydroxybutoxy)imino]azetidin-1-yl}pyrimidin-5-yl)benzyl carbamimidoylcarbamate] | ≥ 50
27 | CON=C1CN(c2ncc(-c3cccc(COC(=O)NC(=N)N)c3F)cc2C2CC2)C1 [Example 46, 3-{5-Cyclopropyl-6-[3-(methoxyimino)azetidin-1-yl]pyridin-3-yl}-2-fluorobenzyl carbamimidoylcarbamate] | ≥ 50
